# Values quoted from earlier work, collected in patent publication US9329191B2, “Reaction-based fluorescent probe for selective detection of carbon monoxide using metal-mediated carbonylation” (THE REGENTS OF THE UNIVERSITY OF CALIFORNIA, priority 2013, dated 2016).
# Conditions: literature
compound,measurement,value
"NCC(=O)O.[C-]#[O+].[C-]#[O+].[C-]#[O+].[Cl][Ru] [CORM-3, [Ru(CO)3Cl(glycinate)]]",CORM-3 concentration shown to not alter cell viability,up to 500 μM
